Data from US8236984B2, “Compound and use thereof in the treatment of amyloidosis” (Pentraxin Therapeutics Ltd., priority 2007, dated 2012).

Legend:
L55P transthyretin = target: T1, L55P transthyretin (Homo sapiens, UniProt P02766, L75P); experiment: Mass spectrometric analysis of ligand dissociation under increasing cone voltage; type: binding; details: equimolar 4.4 μM with wild type, 2 fold excess of ligand
T1 construct: made in house
Excerpt: (§1) 4.3. Mass spectrometric analysis of dissociation of 4ajm15 from wild type and amyloidogenic variant transthyretin. ESMS spectra were acquired under increasing cone voltage conditions to induce stepwise dissociation of the ligand from wild type transthyretin and amyloidogenic variants V30M and L55P transthyretin. As the cone voltage increases splitting becomes apparent in the tetramer peaks, corresponding to apo (protein alone) and holo (protein+ligand) transthyretin as ligand begins to dissociate.
L55P transthyretin and [^15N, ^13C] wild type transthyretin in a 2 fold excess of 4ajm15. […] In spectrum β the onset of 4ajm15 dissociation from wild type tetramer is observed (a) while no ligand dissociation is observed from L55P transthyretin. Dissociation from wild type transthyretin progresses with increasing collisional energy in spectrum γ, but it is not until spectrum δ, where approximately 50% of the wild type is apo, that ligand dissociation from L55P transthyretin is observed (a).

[1] = target: T2, thyroxine binding globulin (TBG) (Homo sapiens, UniProt P05543); experiment: T4 displacement from T4 binding proteins in whole serum (agarose gel electrophoresis, densitometry); details: increasing concentrations of ligand
T2 construct: from tissue; host or cells: whole serum
T2 sequence (P05543 21-415): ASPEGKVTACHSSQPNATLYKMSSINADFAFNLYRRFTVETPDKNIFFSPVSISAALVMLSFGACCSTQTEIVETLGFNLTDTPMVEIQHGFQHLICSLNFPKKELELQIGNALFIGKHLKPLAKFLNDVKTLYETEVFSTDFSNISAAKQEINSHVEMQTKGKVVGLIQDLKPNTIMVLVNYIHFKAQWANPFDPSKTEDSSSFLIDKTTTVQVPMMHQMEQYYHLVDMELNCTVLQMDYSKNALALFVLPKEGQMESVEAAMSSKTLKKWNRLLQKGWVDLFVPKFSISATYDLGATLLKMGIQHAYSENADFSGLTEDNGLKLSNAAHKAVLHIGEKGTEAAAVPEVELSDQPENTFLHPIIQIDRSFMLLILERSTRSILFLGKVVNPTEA
Excerpt: 3.2.3.3. […] After the electrophoresis, the proteins were transferred by capillary diffusion to a nitrocellulose membrane and subjected to phosphor imaging (Typhoon 8600; […], Amersham Biosciences). The two known T4-binding proteins, transthyretin and thyroxine binding globulin (TBG), were distinctly visualized, while albumin binding appears as a radioactive smear between them.

V30M transthyretin = target: T3, V30M transthyretin (Homo sapiens, UniProt P02766, V50M); experiment: Mass spectrometric analysis of ligand dissociation under increasing cone voltage; type: binding; details: equimolar 4.4 μM with wild type, 2 fold excess of ligand
T3 construct: made in house
Excerpt: as §1
The onset of ligand dissociation from V30M transthyretin occurs at the same energy level but the peak height corresponding to apo V30M transthyretin is lower than that for wild type (FIG. 17). Since these two species have very similar amino acid sequences (and therefore similar charging during MS ionisation) they are able to act as internal standards for each other. Therefore a lower peak height for apo V30M compared to apo WT is indicative of a lower proportion of apo V30M than apo WT. At increasing energy levels apo V30M is consistently lower relative to apo WT and as ligand dissociation from WT is complete, a proportion of holo V30M is still present.
V30M transthyretin and [^15N, ^13C] wild type transthyretin in a 2 fold excess of ligand. […]

proportion of wild type that is apo when dissociation from L55P is first observed (spectrum δ) (L55P transthyretin): approximately 50%
effect on binding of T4 by TBG [1]: did not affect
peak height of apo V30M transthyretin at onset of dissociation (spectrum β) (V30M transthyretin): ~45%
SMILES: O=C(O)c1ccccc1Nc1cc(Cl)c(OCCCCCCCCCCCOc2c(Cl)cc(Nc3ccccc3C(=O)O)cc2Cl)c(Cl)c1 [4ajm15, 2,2′-(4,4′-(undecane-1,11-diylbis(oxy))bis(3,5-dichloro-4,1-phenylene))bis(azanediyl)dibenzoic acid]
dissociation of ligand from L55P transthyretin (L55P transthyretin): only at higher collisional energy than wild type
